Target: Platelet-activating factor receptor (Homo sapiens, UniProt P25105)
Experiment: Inhibition of [3H]PAF binding to platelet activating factor receptor in human platelet

Sequence of Platelet-activating factor receptor (P25105 whole entry): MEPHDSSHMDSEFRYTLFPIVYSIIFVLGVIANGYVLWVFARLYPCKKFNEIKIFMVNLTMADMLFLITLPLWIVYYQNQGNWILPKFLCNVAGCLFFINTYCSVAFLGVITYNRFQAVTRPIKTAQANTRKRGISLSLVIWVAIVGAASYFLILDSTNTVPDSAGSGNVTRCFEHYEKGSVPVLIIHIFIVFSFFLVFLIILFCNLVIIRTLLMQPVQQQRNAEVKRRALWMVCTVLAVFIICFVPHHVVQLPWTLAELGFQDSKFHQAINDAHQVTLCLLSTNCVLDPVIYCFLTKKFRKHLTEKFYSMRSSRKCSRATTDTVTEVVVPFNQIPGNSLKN

Row | Compound | IC50 [nM]
1 | C/C1=C\CC[C@]2(C)O[C@H]2[C@@]2(O)OCC3=C2CC[C@@H](C)[C@]3(C)CC1 | 575
2 | C/C1=C\CC[C@]2(C)O[C@@H]3C[C@@H](C)[C@](C)(CC1)[C@]14CO[C@](O)([C@H]2O)[C@]31O4 | 2340
3 | C/C1=C\CC[C@@]2(C)O[C@@H]2[C@@]2(O)OCC3=C2[C@@H](O)C[C@@H](C)[C@]3(C)CC1 | 1450
4 | C/C1=C\CC[C@]2(C)O[C@H]2[C@@]2(O)OCC3=C2[C@H](O)C[C@@H](C)[C@]3(C)CC1 | 1120
5 | C/C1=C\CC[C@@]2(C)O[C@@H]2[C@@]2(O)OCC3=C2CC[C@@H](C)[C@]3(C)CC1 | 575
6 | C/C1=C\[C@@]2(O)OC[C@]34O[C@]23CC[C@@H](C)C4(C)CC/C(C)=C/CC1 (single isomer, unassigned) | 1150
7 | C/C1=C\CC[C@]2(C)O[C@@H]3C[C@@H](C)C(C)(CC1)C1=C3[C@](O)(OC1)[C@H]2O (single isomer, unassigned) | 1260
